From a compilation of properties of binary mixtures (doi:10.1021/jp071051m)

Assay: xn = mol fraction of the nth substance listed
Conditions: 298.15 K, 101 kPa

CCCC[n+]1ccn(C)c1.O=C([O-])C(F)(F)F + CC#N
Conditions	electrical conductivity [S/m]	viscosity [mPa·s]
x2 = 0	0.455	52.9
x2 = 0.0798	0.562	42.7
x2 = 0.1769	0.699	31.7
x2 = 0.3539	1.05	17.4
x2 = 0.4443	1.32	12.1
x2 = 0.547	1.69	7.61
x2 = 0.6553	2.19	4.38
x2 = 0.7649	2.76	2.27
x2 = 0.8457	3.06	1.19
x2 = 0.8802	3.09	1.09

CCCC[n+]1ccn(C)c1.F[P-](F)(F)(F)(F)F + CC(C)=O
Conditions	electrical conductivity [S/m]	viscosity [mPa·s]
x2 = 0	0.157	260
x2 = 0.1006	0.256	148
x2 = 0.1935	0.389	89
x2 = 0.3033	0.612	48.4
x2 = 0.3988	0.89	27.4
x2 = 0.6016	1.81	7.36
x2 = 0.6992	2.38	3.76
x2 = 0.8433	3.11	1.34
x2 = 0.8853	3.12	1.02

ClCCl + CCCC[n+]1ccn(C)c1.F[P-](F)(F)(F)(F)F
Conditions	electrical conductivity [S/m]	viscosity [mPa·s]
x1 = 0.0753	0.213	180
x1 = 0.163	0.294	129
x1 = 0.3361	0.533	58.2
x1 = 0.5384	0.97	18.7
x1 = 0.6462	1.24	9.5
x1 = 0.738	1.43	5
x1 = 0.8242	1.42	2.57
x1 = 0.8678	1.3	1.82

CCCC[n+]1ccn(C)c1.F[P-](F)(F)(F)(F)F + CCOC(C)=O
Conditions	electrical conductivity [S/m]	viscosity [mPa·s]
x2 = 0	0.157	260
x2 = 0.0883	0.229	167
x2 = 0.1793	0.326	101
x2 = 0.4691	0.771	21
x2 = 0.5703	0.96	11.3
x2 = 0.6738	1.1	5.69
x2 = 0.8339	0.96	2.07

CCCC[n+]1ccn(C)c1.O=C([O-])C(F)(F)F + ClC(Cl)Cl
Conditions	electrical conductivity [S/m]	viscosity [mPa·s]
x2 = 0	0.455	52.9
x2 = 0.0918	0.507	46.4
x2 = 0.1815	0.558	40.4
x2 = 0.2793	0.618	33.7
x2 = 0.3861	0.692	25.9
x2 = 0.482	0.766	19.3
x2 = 0.5804	0.85	13
x2 = 0.6467	0.89	9.7
x2 = 0.6812	0.9	7.85
x2 = 0.729	0.89	6.06
x2 = 0.7847	0.826	4.02
x2 = 0.8677	0.603	2.02

CCCC[n+]1ccn(C)c1.F[P-](F)(F)(F)(F)F + ClCCl
x2 = 0
Conditions	electrical conductivity [S/m]	viscosity [mPa·s]
–	0.157	260

CCCC[n+]1ccn(C)c1.O=C([O-])C(F)(F)F + O
Conditions	electrical conductivity [S/m]	viscosity [mPa·s]
x2 = 0	0.455	52.9
x2 = 0.1093	0.543	46.3
x2 = 0.197	0.619	40.9
x2 = 0.2888	0.713	35.5
x2 = 0.396	0.88	29.2
x2 = 0.4921	1.07	23.8
x2 = 0.5897	1.34	18.7
x2 = 0.6918	1.72	13.6
x2 = 0.7927	2.38	9
x2 = 0.884	3.14	5.13
x2 = 0.9195	3.34	3.67

CCCC[n+]1ccn(C)c1.F[P-](F)(F)(F)(F)F + c1ccncc1
Conditions	electrical conductivity [S/m]	viscosity [mPa·s]
x2 = 0	0.157	260
x2 = 0.0964	0.222	161
x2 = 0.1929	0.308	102
x2 = 0.291	0.435	63.4
x2 = 0.3899	0.599	38
x2 = 0.5922	1.11	12.1
x2 = 0.6978	1.43	6.35
x2 = 0.7695	1.63	3.73
x2 = 0.8372	1.73	2.42
x2 = 0.8781	1.68	1.94
